Data from US20230042881A1, “MODULATORS OF INTEGRATED STRESS RESPONSE PATHWAY” (Praxis Biotech LLC, priority 2021, published 2023).
Where two headings read alike, the source gives them in different places.

Experiments:
[1] = test system: ATF4; test: ATF4 expression inhibition assay (ATF4 5′UTR luciferase reporter, thapsigargin-stressed); format: cell-based; conditions: Homo sapiens, HEK-293T, read-out: ATF4 inhibition
Method: The ATF4 reporter was prepared by fusing the human full length 5′UTR of ATF4 (NCBI Accession No. BC022088.2) upstream of the firefly luciferase coding sequence lacking the initiator methionine. The fused sequence was cloned into pLenti-EF1a-C-Myc-DDK-IRES-Puro cloning vector (Origen #PS100085) using standard methods.
HEK293T cells carrying the ATF4 luciferase reporter were plated on 96-well plates (Nunc) at 10,000 cells per well. Cells were treated two days after seeding with 100 nM thapsigargin (Tg) (Sigma-Aldrich #T9033) in the presence of different concentrations of selected compounds ranging from 0.1 nM to […]. Cells without treatment or cells treated with Tg alone were used as controls. Assay plates containing cells were incubated for 3 hours at 37° C.
Luciferase reactions were performed using Luciferase Assay System (Promega #E1501) as specified by the manufacturer. Luminescence was read with an integration time of 1 s and a gain of 110 using a Cytation-5 multi-mode microplate reader (BioTek).

[2] = test system: Chinese hamster ovary (CHO) cells; test: Protein synthesis assay (puromycin incorporation, Western blot); format: cell-based; conditions: Cricetulus griseus, read-out: % Protein synthesis relative to untreated (1 μM test compound)
Method: Chinese hamster ovary (CHO) cells were maintained at 37° C. and 5% CO2 in Dulbecco's Modified Eagle's Media (DMEM) supplemented with 10% fetal bovine serum, 2 mM L-glutamine, 100 U/ml penicillin, and 100 μg/ml streptomycin. After reaching 80% of confluence, cells were detached and seeded on 6 well plates in complete media, allowed to recover overnight and treated for 2 hours with 1 μM of the test compound (to assess protein synthesis levels in unstressed condition), or for 2 hours with 300 nM Tg in the presence of 1 μM of the test compound (to assess the recovery of protein synthesis in a stressed condition). Cells with Tg alone were used as controls.
After the 2 hours treatments, media were replaced by adding 10 μg/ml puromycin (Sigma Aldrich #P8833) in complete media for 30 min. Media were removed and cells were lysed with SDS-PAGE lysis buffer. Lysates were transferred to 1.5 ml tubes and sonicated for 3 min and total protein amount were quantified using BCA Protein Assay Kit (Pierce). Equal amount of protein (30 μg) was loaded on SDS-PAGE gels.
A HRP-conjugated secondary antibody (Rockland) was employed to detect immune-reactive bands using enhanced chemiluminescence (ECL Western Blotting Substrate, Pierce). Quantification of protein bands was done by densitometry using ImageJ software.
The percentage levels were normalized to the media alone condition, which correspond to 100% protein synthesis. […]

[3] = HEK293T cells carrying ATF4 luciferase reporter, 100 nM thapsigargin (Tg), 3 hours at 37° C.
[4] = unstressed CHO cells (without Tg), 2 hours, 1 μM test compound, media alone = 100%

SMILES | IC50 [1, 3] | activity at 1 µM [2, 4] | IC50 ([1]; 3 h) | activity at 1 µM ([2]; CHO, 2 h)
O=C(NC[C@H]1CC[C@H](C(=O)Nc2ccc3cc(Cl)ccc3n2)CC1)c1ccc(C(F)(F)F)cn1 [Compound 38, trans-N-((4-((6-chloroquinolin-2-yl)carbamoyl)cyclohexyl)methyl)-5-(trifluoromethyl)picolinamide] | 0.1 to 1 µM | – | – | –
O=C(N[C@H]1CC[C@H](C(=O)Nc2ccc3cc(Cl)ccc3n2)CC1)C1CNc2cc(Cl)ccc2O1 (stereo partly drawn) [Compound 5, trans-6-chloro-N-(4-((6-chloroquinolin-2-yl)carbamoyl)cyclohexyl)-3,4-dihydro-2H-benzo[b][1,4]oxazine-2-carboxamide] | < 0.01 µM | 195% | – | –
O=C(NCc1cc2cc(Cl)ccc2o1)C1CCN(NC(=O)C2CNc3cc(Cl)ccc3O2)CC1 (stereo not drawn) [Compound 50, 6-chloro-N-(4-(((5-chlorobenzofuran-2-yl)methyl)carbamoyl)piperidin-1-yl)-3,4-dihydro-2H-benzo[b][1,4]oxazine-2-carboxamide] | 0.01 to 0.1 µM | 85.1% | – | –
O=C(N[C@H]1CC[C@H](C(=O)NCc2cc3cc(Cl)ccc3o2)CC1)c1ccc2cc(Cl)ccc2n1 [Compound 43, 6-chloro-N-(trans-4-(((5-chlorobenzofuran-2-yl)methyl)carbamoyl)cyclohexyl)quinoline-2-carboxamide] | < 0.01 µM | 85.2% | – | –
O=C(COc1ccc(Cl)cc1)N[C@H]1CC[C@H](C(=O)Nc2ccc3cc(Cl)ccc3n2)CC1 [Compound 1, trans-4-(2-(4-chlorophenoxy)acetamido)-N-(6-chloroquinolin-2-yl)cyclohexane-1-carboxamide] | – | – | < 0.01 µM | 91.8%
O=C(COc1ccc(Cl)c(F)c1)N[C@H]1CC[C@H](C(=O)Nc2nc3cc(Cl)ccc3s2)CC1 [Compound 14, trans-4-(2-(4-chloro-3-fluorophenoxy)acetamido)-N-(5-chlorobenzo[d]thiazol-2-yl)cyclohexane-1-carboxamide] | < 0.01 µM | 105% | – | –
O=C(COc1ccc(OC(F)(F)F)cc1)N[C@H]1CC[C@H](C(=O)Nc2ccc3cc(Cl)ccc3n2)CC1 [Compound 36, trans-N-(6-chloroquinolin-2-yl)-4-(2-(4-(trifluoromethoxy)phenoxy)acetamido)cyclohexanecarboxamide] | < 0.01 µM | 160% | – | –
O=C(CO[C@H]1C[C@@H](OC(F)(F)F)C1)N[C@H]1CC[C@H](C(=O)NCc2cc3cc(Cl)ccc3o2)CC1 [Compound 59, trans-N-((5-chlorobenzofuran-2-yl)methyl)-4-(2-(cis-3-(trifluoromethoxy)cyclobutoxy)acetamido)cyclohexane-1-carboxamide] | 0.1 to 1 µM | – | – | –
O=C(N[C@H]1CC[C@H](C(=O)Nc2ccc3cc(Cl)ccc3n2)CC1)c1ccc2cc(Cl)ccc2n1 [Compound 2, trans-6-chloro-N-(4-((6-chloroquinolin-2-yl)carbamoyl)cyclohexyl)quinoline-2-carboxamide] | < 0.01 µM | 163% | – | –
O=C(COc1ccc(Cl)c(F)c1)N[C@H]1CC[C@H](C(=O)NCc2ccc3cc(Cl)ccc3n2)CC1 [Compound 22, trans-4-(2-(4-chloro-3-fluorophenoxy)acetamido)-N-((6-chloroquinolin-2-yl)methyl)cyclohexanecarboxamide] | 0.01 to 0.1 µM | 100% | – | –
O=C(Nc1ccc2cc(Cl)ccc2n1)[C@H]1CC[C@H](C(=O)Nc2ccc3cc(Cl)ccc3n2)CC1 [Compound 17, trans-N^1,N^4-bis(6-chloroquinolin-2-yl)cyclohexane-1,4-dicarboxamide] | 0.01 to 0.1 µM | 110% | – | –
O=C(CO[C@H]1C[C@@H](OC(F)(F)F)C1)NN1CCC(C(=O)Nc2nc3cc(Cl)ccc3s2)CC1 [Compound 121, N-(5-chlorobenzo[d]thiazol-2-yl)-1-(2-(cis-3-(trifluoromethoxy)cyclobutoxy)acetamido)piperidine-4-carboxamide] | 0.1 to 1 µM | – | – | –
O=C(COc1ccc(Cl)c(F)c1)NN1CCC(C(=O)NCc2cc3cc(Cl)ccc3o2)CC1 [Compound 40, 1-(2-(4-chloro-3-fluorophenoxy)acetamido)-N-((5-chlorobenzofuran-2-yl)methyl)piperidine-4-carboxamide] | < 0.01 µM | 121% | – | –
O=C(COc1ccc(Cl)c(F)c1)N[C@H]1CC[C@H](C(=O)NCc2cc3cc(Cl)ccc3o2)CC1 [Compound 39, trans-4-(2-(4-chloro-3-fluorophenoxy)acetamido)-N-((5-chlorobenzofuran-2-yl)methyl)cyclohexanecarboxamide] | 0.01 to 0.1 µM | 170% | – | –
O=C(N[C@H]1CC[C@H](C(=O)NCC2CNc3cc(Cl)ccc3O2)CC1)c1cc2cc(Cl)ccc2o1 (stereo partly drawn) [Compound 75, 5-chloro-N-(trans-4-(((6-chloro-3,4-dihydro-2H-benzo[b][1,4]oxazin-2-yl)methyl)carbamoyl)cyclohexyl)benzofuran-2-carboxamide] | < 0.01 µM | 114% | – | –
O=C(N[C@H]1CC[C@H](C(=O)Nc2ccc3cc(Cl)ccc3n2)CC1)c1cc2cc(Cl)ccc2o1 [Compound 4, trans-5-chloro-N-(4-((6-chloroquinolin-2-yl)carbamoyl)cyclohexyl)benzofuran-2-carboxamide] | < 0.01 µM | 204% | – | –
O=C(C[C@H]1CC[C@H](NC(=O)COc2ccc(Cl)c(F)c2)CC1)Nc1ccc2cc(Cl)ccc2n1 [Compound 21, trans-2-(4-chloro-3-fluorophenoxy)-N-(4-(2-((6-chloroquinolin-2-yl)amino)-2-oxoethyl)cyclohexyl)acetamide] | – | – | 0.1 to 1 µM | –
O=C(CO[C@H]1C[C@@H](OC(F)(F)F)C1)N[C@H]1CC[C@H](C(=O)Nc2nc3cc(Cl)ccc3o2)CC1 [Compound 101, trans-N-(5-chlorobenzo[d]oxazol-2-yl)-4-(2-(cis-3-(trifluoromethoxy)cyclobutoxy)acetamido)cyclohexanecarboxamide] | – | – | 0.1 to 1 µM | –
O=C(NC[C@H]1CC[C@H](C(=O)NCc2cc3cc(Cl)ccc3o2)CC1)c1ccc(C(F)(F)F)nc1 [Compound 51, N-((trans-4-(((5-chlorobenzofuran-2-yl)methyl)carbamoyl)cyclohexyl)methyl)-6-(trifluoromethyl)nicotinamide] | 0.1 to 1 µM | – | – | –
O=C(NC[C@H]1CC[C@H](C(=O)Nc2ccc3cc(Cl)ccc3n2)CC1)c1ccc(C(F)(F)F)nc1 [Compound 37, trans-N-((4-((6-chloroquinolin-2-yl)carbamoyl)cyclohexyl)methyl)-6-(trifluoromethyl)nicotinamide] | 0.1 to 1 µM | – | – | –
O=C(Nc1nc2cc(Cl)ccc2s1)[C@H]1CC[C@H](C(=O)N[C@H]2C[C@@H](OC(F)(F)F)C2)CC1 [Compound 123] | 0.1 to 1 µM | – | – | –
O=C(NC[C@H]1CC[C@H](C(=O)NCc2cc3cc(Cl)ccc3o2)CC1)c1ccc(C(F)(F)F)cn1 [Compound 52, N-((trans-4-(((5-chlorobenzofuran-2-yl)methyl)carbamoyl)cyclohexyl)methyl)-5-(trifluoromethyl)picolinamide] | 0.1 to 1 µM | – | – | –
O=C(CO[C@H]1C[C@@H](OC(F)(F)F)C1)NN1CCC(C(=O)NCc2cc3cc(Cl)ccc3o2)CC1 [Compound 56, N-((5-chlorobenzofuran-2-yl)methyl)-1-(2-(cis-3-(trifluoromethoxy)cyclobutoxy)acetamido)piperidine-4-carboxamide] | 0.1 to 1 µM | – | – | –
O=C(NC[C@H]1CC[C@H](C(=O)Nc2ccc3cc(Cl)ccc3n2)CC1)c1cnc(C(F)F)cn1 [Compound 23, trans-N-((4-((6-chloroquinolin-2-yl)carbamoyl)cyclohexyl)methyl)-5-(difluoromethyl)pyrazine-2-carboxamide] | > 1 µM | – | – | –
O=C(CO[C@H]1C[C@@H](OC(F)(F)F)C1)N[C@H]1CC[C@H](C(=O)NCC2CNc3cc(Cl)ccc3O2)CC1 (stereo partly drawn) [Compound 79, trans-N-((6-chloro-3,4-dihydro-2H-benzo[b][1,4]oxazin-2-yl)methyl)-4-(2-(cis-3-(trifluoromethoxy)cyclobutoxy)acetamido)cyclohexane-1-carboxamide] | 0.1 to 1 µM | – | – | –
O=C(CO[C@H]1C[C@@H](OC(F)(F)F)C1)NN1CCC(C(=O)NCC2CNc3cc(Cl)ccc3O2)CC1 (stereo partly drawn) [Compound 80, N-((6-chloro-3,4-dihydro-2H-benzo[b][1,4]oxazin-2-yl)methyl)-1-(2-(cis-3-(trifluoromethoxy)cyclobutoxy)acetamido)piperidine-4-carboxamide] | 0.1 to 1 µM | – | – | –
